Assay [1] concerns bovine cartilage explants. In words: GAG release inhibition (IL-1 induced) in bovine cartilage explants, Blyscan colorimetric assay. Conditions: for reduction in the GAG release induced by IL-1 (result in words): bovine explants, compared to culture stimulated with IL-1 in the presence of 0.25% DMSO. It counts as cell-based. On the procedure:
(§1) Glycosaminoglycan (GAG) release is a test used to evaluate the effects of the compounds of the present invention on proteoglycan degradation induced by IL-1.
(§2) Full-depth articular cartilage were dissected from the metacarpophalangeal joints of calves of approximately 6 months of age or human cartilage from joint replacement surgery (approximately 4 mm diameter punches for bovine cartilage and 2 mm for human cartilage). After an equilibration period of 24 hours, explants were cultured for one day in 200 µl DMEM + hydrolyzed lactalbumin + 50 µg/ml vitamin C + penicillin/streptomycin + ITS (Insulin-Transferrin-Selenium) in the presence or absence of the compounds. After one day, GAG release was induced by addition of 10 ng of IL-1. Six days after IL-1 induction, the cartilage and culture medium were collected for analysis. During this six day period the culture medium was replaced every two days.
(§3) GAG release was analyzed using the Blyscan® colorimetric assay (Biocolor, Belfast, UK). To measure GAG content of the cartilage explants, the tissue was digested with papain. The culture medium of day 4, 6 and 8 was pooled before GAG analysis. GAG release was expressed as percentage of the total GAG content of the explants (i.e. GAG medium + GAG in papain digest).
(§4) A control condition with 0.25% DMSO was included because the test compounds were dissolved in DMSO. A condition with glucosamine hydrochloride was added for comparison.
(§5) Each culture condition was performed with cartilage of five different paws/patients to account for biological variation.
(§6) ANOVA followed by LSD post-hoc tests were used for determining differences between groups (p≤ 0.05 was considered significant).
(§7) Results in Tables 3 and 4 were expressed as a percentage reduction in GAG release compared to the control condition with DMSO stimulated with IL-1.

For assay [2], the system named is human cartilage explants. Kind of assay: GAG release inhibition (IL-1 induced) in human cartilage explants, Blyscan colorimetric assay. Conditions: for reduction of GAG release (result in words): doses 50 µM, 100 µM and 250 µM. Format: cell-based. On the procedure: as §1, §2, §3, §4, §5, §6, §7
Where [3] appears, read: Bos taurus, bovine cartilage explants, percentage reduction in GAG release vs 0.25% DMSO + IL-1 control, * p≤ 0.05, (Inactive) = not statistically significant.

Regarding “2-deoxy-2-(pent-4-enoylamino)-3-O-[4-methoxyphenyl(ethoxy-L-prolinyl)]phosphoramidate-D-glucopyranose [Compound 87]”, the GAG release inhibition in assay [1] (250 µM, bovine cartilage explants, percentage reduction in GAG release vs 0.25% DMSO + IL-1 control, * p≤ 0.05, (Inactive) = not statistically significant) turned out to be 33.3%*. The “reduction in the GAG release induced by IL-1 (result in words)” value (shortened to “reduction in the GAG release induced”) in assay [1] was “statistically significant reduction of the GAG release”.

For `COc1ccc(OP(=O)(O[C@H]2[C@H](O)[C@@H](CO)OC(O)[C@@H]2NC(C)=O)N2CCC[C@H]2C(=O)OCc2ccccc2)cc1` (stereo partly drawn) [Compound 1, 2-acetamido-2-deoxy-3-O-[4-methoxyphenyl(benzyloxy-L-prolinyl)]phosphoramidate-D-glucopyranose], the “reduction in the GAG release induced” value in assay [1] is reported as “statistically significant reduction of the GAG release”. Moreover, the “reduction of GAG release (result in words)” value in assay [2] is recorded as “statistically significant activity”. Usually inhibition stands for the relative decrease from the control value, in per cent. In the case of `COc1ccc(OP(=O)(N[C@H](C(=O)OCc2ccccc2)C(C)C)O[C@H]2[C@H](O)[C@@H](CO)OC(O)[C@@H]2NC(C)=O)cc1` (stereo partly drawn) [Compound 16, 2-acetamido-2-deoxy-3-O-[4-methoxyphenyl(benzyloxy-L-valinyl)]phosphoramidate-D-glucopyranose], the inhibition at 100 µM in assay [1] (setting [3]) is 27%. Moreover, in assay [1], the “reduction in the GAG release induced” value is given as “statistically significant reduction of the GAG release”. As for `CCOC(=O)[C@@H]1CCCN1P(=O)(Oc1ccc(OC)cc1)O[C@H]1[C@H](O)[C@@H](CO)OC(O)[C@@H]1NC(C)=O` (some centres unmarked) [Compound 31], the “reduction in the GAG release induced” value in assay [1] is on record as “statistically significant reduction of the GAG release”. As to `CCOC(=O)[C@@H]1CCCN1P(=O)(Oc1ccc(OC)cc1)O[C@H]1[C@H](O)[C@@H](NC(C)=O)C(O)O[C@@H]1CO` (stereo partly drawn) [Compound 32, 2-acetamido-2-deoxy-4-O-[4-methoxyphenyl(ethoxy-L-prolinyl)]phosphoramidate-D-glucopyranose], the “reduction in the GAG release induced” value in assay [1] is on record as “statistically significant reduction of the GAG release”. Consider `CCC(C)OC(=O)[C@@H](NP(=O)(Oc1ccc(OC)cc1)O[C@H]1[C@H](O)[C@@H](CO)OC(O)[C@@H]1NC(C)=O)C(C)C` (stereo partly drawn) [Compound 58, 2-acetamido-2-deoxy-3-O-[4-methoxyphenyl(2-butoxy-L-valinyl)]phosphoramidate-D-glucopyranose], for which the inhibition at 100 µM in assay [1] (setting [3]) was 41%. Besides, the “reduction in the GAG release induced” value in assay [1] is “statistically significant reduction of the GAG release”. With `C=CCCC(=O)N[C@H]1C(O)O[C@H](CO)[C@@H](O)[C@@H]1OP(=O)(N[C@H](C(=O)OCc1ccccc1)C(C)C)Oc1ccc(OC)cc1` (stereo partly drawn) [Compound 61, 2-deoxy-2-(pent-4-enoylamino)-3-O-[4-methoxyphenyl(benzyloxy-L-valinyl)]phosphoramidate-D-glucopyranose], the inhibition at 100 µM in assay [1] (setting [3]) was found to be 47%. Besides, the “reduction in the GAG release induced” value in assay [1] is “statistically significant reduction of the GAG release”. In the same order, the values of `COc1ccc(OP(=O)(N[C@H](C(=O)OCc2ccccc2)C(C)C)O[C@H]2[C@H](O)[C@@H](CO)OC(O)[C@@H]2N)cc1` (stereo partly drawn) [Compound 63, 2-amino-2-deoxy-3-O-[4-methoxyphenyl(benzyloxy-L-valinyl)]phosphoramidate-D-glucopyranose] are 31% and “statistically significant reduction of the GAG release”. `CCCCCOC(=O)[C@@H]1CCCN1P(=O)(Oc1ccc(OC)cc1)O[C@H]1[C@H](O)[C@@H](NC(C)=O)C(O)O[C@@H]1CO` (stereo partly drawn) [Compound 69, 2-acetamido-2-deoxy-4-0-[4-methoxyphenyl(n-pentoxy-L-prolinyl)]phosphoramidate-D-glucopyranose]: in assay [1], the “reduction in the GAG release induced” value is reported as “statistically significant reduction of the GAG release”. The same measure, in the same setting: then `CC(=O)N[C@H]1C(O)O[C@H](CO)[C@@H](O)[C@@H]1OP(=O)(Oc1ccccc1)N1CCC[C@H]1C(=O)OCc1ccccc1` (stereo partly drawn) [Compound 74, 2-acetamido-2-deoxy-3-O-[phenyl(benzyloxy-L-prolinyl)]phosphoramidate-D-glucopyranose], with “statistically significant reduction of the GAG release”; and `CCOC(=O)[C@@H]1CCCN1P(=O)(Oc1cccc2ccccc12)O[C@H]1[C@H](O)[C@@H](CO)OC(O)[C@@H]1NC(C)=O` (stereo partly drawn) [Compound 80, 2-acetamido-2-deoxy-3-O-[1-naphtyl(ethoxy-L-prolinyl)]phosphoramidate-D-glucopyranose], with “statistically significant reduction of the GAG release”. With `Cl.N[C@H]1C(O)O[C@H](CO)[C@@H](O)[C@@H]1O` (some centres unmarked) [Glucosamine Hydrochloride], the inhibition at 100 µM in assay [1] (setting [3]) turned out to be 0%; in assay [2] (100 µM, percentage reduction in GAG release vs 0.25% DMSO + IL-1 control, * p≤ 0.05, (Inactive) = not statistically significant), 11.9%. Further, the inhibition at 250 µM in assay [1] (Bos taurus, 250 µM, bovine cartilage explants, percentage reduction in GAG release vs 0.25% DMSO + IL-1 control, * p≤ 0.05, (Inactive) = not statistically significant) is 0%; in assay [2] (250 µM, percentage reduction in GAG release vs 0.25% DMSO + IL-1 control, * p≤ 0.05, (Inactive) = not statistically significant), 11.9%. Moreover, the “reduction in the GAG release induced” value in assay [1] is on record as “did not caused any statistically significant reduction”. Also, in assay [2] (50 µM, percentage reduction in GAG release vs 0.25% DMSO + IL-1 control, * p≤ 0.05, (Inactive) = not statistically significant), the inhibition at 50 µM came out at 7.8%. In assay [2], the “reduction of GAG release (result in words)” value was “inactive”. Regarding `COc1ccc(OP(=O)(NC(C(=O)OCc2ccccc2)C(C)C)OC[C@H]2OC(O)[C@H](NC(C)=O)[C@@H](O)[C@@H]2O)cc1` (some centres unmarked) [Reference compound 4, reference compound], the inhibition at 100 µM in assay [1] (setting [3]) is 3%.

Turning to `COc1ccc(OP(=O)(NC(C(=O)OCc2ccccc2)C(C)C)OC[C@H]2OC(O)[C@H](N)[C@@H](O)[C@@H]2O)cc1` (some centres unmarked) [Reference compound 5, reference compound], the inhibition at 100 µM in assay [1] (setting [3]) came out at 4%.

For the origin of these results see patent publication EP2471802A1, “Phosphoramidates of monosaccharides” (Bioiberica, S.A., priority 2010, dated 2012).
